Measured values as given in patent US10829796B2, “Bacteria identification and antimicrobial susceptibility test” (priority 2015, dated 2020).

What was measured:
Type in all cases: cell-based
Staphylococcus aureus = test: Antibiotic susceptibility testing (colour of media), spiked milk; conditions: for Colour of media: Tryptic Soy (70 ul composition 2c), bacteria sample 5c; for Colour of media in each well: T~16 h, 37° C., plate configuration #3
Escherichia coli = test: as above; conditions: for Colour of media in each well: 37° C., plate configuration #3
Streptococcus uberis = test: as above; conditions: for Colour of media in each well: T~16 h, 37° C., bacteria samples 6d, plate configuration #3
[1] = tested on: bacteria samples 4c, 4e, 5c, 5e, 6d; test: Antibiotic susceptibility testing (colour of media), plate configuration #3, reference colours at 0 hours for bacteria samples 4c, 4e, 5c, 5e, 6d; conditions: T~0 h
[2] = bacteria sample 4d 4 μl + Composition 27 1 μl + drug solution (100 μg Aztreonam per ml water) 0.5 μl
[3] = bacteria sample 4d 8 μl + Composition 27 2 μl + drug solution (100 μg Aztreonam per ml water) 1 μl
[4] = bacteria sample 4d 20 μl + Composition 27 5 μl + drug solution (100 μg Aztreonam per ml water) 2.5 μl
[5] = bacteria sample 4d 40 μl + Composition 27 10 μl + drug solution (100 μg Aztreonam per ml water) 5 μl
[6] = bacteria sample 4d 80 μl + Composition 27 20 μl + drug solution (100 μg Aztreonam per ml water) 10 μl
[7] = bacteria sample 4d 160 μl + Composition 27 40 μl + drug solution (100 μg Aztreonam per ml water) 20 μl
[8] = bacteria sample 6d 4 μl + Composition 27 1 μl + drug solution (100 μg Aztreonam per ml water) 0.5 μl
[9] = bacteria sample 6d 8 μl + Composition 27 2 μl + drug solution (100 μg Aztreonam per ml water) 1 μl
[10] = bacteria sample 6d 20 μl + Composition 27 5 μl + drug solution (100 μg Aztreonam per ml water) 2.5 μl
[11] = bacteria sample 6d 40 μl + Composition 27 10 μl + drug solution (100 μg Aztreonam per ml water) 5 μl
[12] = bacteria sample 6d 80 μl + Composition 27 20 μl + drug solution (100 μg Aztreonam per ml water) 10 μl
[13] = bacteria sample 6d 160 μl + Composition 27 40 μl + drug solution (100 μg Aztreonam per ml water) 20 μl

C[C@H]1[C@H](NC(=O)/C(=N\OC(C)(C)C(=O)O)c2csc(N)n2)C(=O)N1S(=O)(=O)O [aztreonam]
Colour of media (Staphylococcus aureus; T = 0 hours (pre incubation), drug 0.01 μg/ml): red
Colour of media (Staphylococcus aureus; T = 0 hours (pre incubation), drug 0.05 μg/ml): red
Colour of media (Staphylococcus aureus; T = 0 hours (pre incubation), drug 0.1 μg/ml): red
Colour of media (Staphylococcus aureus; T = 0 hours (pre incubation), drug 0.5 μg/ml): red
Colour of media (Staphylococcus aureus; T = 0 hours (pre incubation), drug 1 μg/ml): red
Colour of media (Staphylococcus aureus; T = 0 hours (pre incubation), drug 5 μg/ml): red
Colour of media (Staphylococcus aureus; T = 0 hours (pre incubation), drug 10 μg/ml): red
Colour of media (Staphylococcus aureus; T = 0 hours (pre incubation), drug 50 μg/ml): red
Colour of media (Staphylococcus aureus; T = 0 hours (pre incubation), drug 100 μg/ml): red
Colour of media (Staphylococcus aureus; T = 0 hours (pre incubation), drug 500 μg/ml): red
Colour of media (Staphylococcus aureus; T = 15-24 h at 35° C., drug 0.01 μg/ml): yellow
Colour of media (Staphylococcus aureus; T = 15-24 h at 35° C., drug 0.05 μg/ml): yellow
Colour of media (Staphylococcus aureus; T = 15-24 h at 35° C., drug 0.1 μg/ml): yellow
Colour of media (Staphylococcus aureus; T = 15-24 h at 35° C., drug 0.5 μg/ml): yellow
Colour of media (Staphylococcus aureus; T = 15-24 h at 35° C., drug 1 μg/ml): yellow
Colour of media (Staphylococcus aureus; T = 15-24 h at 35° C., drug 5 μg/ml): yellow
Colour of media (Staphylococcus aureus; T = 15-24 h at 35° C., drug 10 μg/ml): yellow
Colour of media (Staphylococcus aureus; T = 15-24 h at 35° C., drug 50 μg/ml): yellow
Colour of media (Staphylococcus aureus; T = 15-24 h at 35° C., drug 100 μg/ml): yellow
Colour of media (Staphylococcus aureus; T = 15-24 h at 35° C., drug 500 μg/ml): yellow
Colour of media in each well (Staphylococcus aureus; bacteria samples 5c, Aztreonam 0.001 μg/ml): red
Colour of media in each well (Staphylococcus aureus; bacteria samples 5c, Aztreonam 0.01 μg/ml): yellow
Colour of media in each well (Staphylococcus aureus; bacteria samples 5c, Aztreonam 0.1 μg/ml): yellow
Colour of media in each well (Staphylococcus aureus; bacteria samples 5c, Aztreonam 1 μg/ml): yellow
Colour of media in each well (Staphylococcus aureus; bacteria samples 5c, Aztreonam 10 μg/ml): yellow
Colour of media in each well (Staphylococcus aureus; bacteria samples 5e, Aztreonam 0.001 μg/ml): yellow
Colour of media in each well (Staphylococcus aureus; bacteria samples 5e, Aztreonam 0.01 μg/ml): yellow
Colour of media in each well (Staphylococcus aureus; bacteria samples 5e, Aztreonam 0.1 μg/ml): yellow
Colour of media in each well (Staphylococcus aureus; bacteria samples 5e, Aztreonam 1 μg/ml): yellow
Colour of media in each well (Staphylococcus aureus; bacteria samples 5e, Aztreonam 10 μg/ml): yellow
Colour of media in each well (Escherichia coli; T~16 h, bacteria samples 4c, Aztreonam 0.001 μg/ml): yellow
Colour of media in each well (Escherichia coli; T~16 h, bacteria samples 4c, Aztreonam 0.01 μg/ml): yellow
Colour of media in each well (Escherichia coli; T~16 h, bacteria samples 4c, Aztreonam 0.1 μg/ml): yellow
Colour of media in each well (Escherichia coli; T~16 h, bacteria samples 4c, Aztreonam 1 μg/ml): yellow
Colour of media in each well (Escherichia coli; T~16 h, bacteria samples 4c, Aztreonam 10 μg/ml): yellow
Colour of media after 24 hours incubation at 37° C. (Escherichia coli; [2]): Red
Colour of media prior incubation (Escherichia coli; [2]): Red
Colour of media after 24 hours incubation at 37° C. (Escherichia coli; [3]): Red
Colour of media prior incubation (Escherichia coli; [3]): Red
Colour of media after 24 hours incubation at 37° C. (Escherichia coli; [4]): Red
Colour of media prior incubation (Escherichia coli; [4]): Red
Colour of media after 24 hours incubation at 37° C. (Escherichia coli; [5]): Red
Colour of media prior incubation (Escherichia coli; [5]): Red
Colour of media after 24 hours incubation at 37° C. (Escherichia coli; [6]): Red
Colour of media prior incubation (Escherichia coli; [6]): Red
Colour of media after 24 hours incubation at 37° C. (Escherichia coli; [7]): Red
Colour of media prior incubation (Escherichia coli; [7]): Red
Colour of media in each well (Escherichia coli; t~16 h, bacteria samples 4e, Aztreonam 0.001 μg/ml): yellow
Colour of media in each well (Escherichia coli; t~16 h, bacteria samples 4e, Aztreonam 0.01 μg/ml): yellow
Colour of media in each well (Escherichia coli; t~16 h, bacteria samples 4e, Aztreonam 0.1 μg/ml): yellow
Colour of media in each well (Escherichia coli; t~16 h, bacteria samples 4e, Aztreonam 1 μg/ml): red
Colour of media in each well (Escherichia coli; t~16 h, bacteria samples 4e, Aztreonam 10 μg/ml): red
Colour of media in each well (Streptococcus uberis; Aztreonam 0.001 μg/ml): yellow
Colour of media in each well (Streptococcus uberis; Aztreonam 0.01 μg/ml): yellow
Colour of media in each well (Streptococcus uberis; Aztreonam 0.1 μg/ml): yellow
Colour of media in each well (Streptococcus uberis; Aztreonam 1 μg/ml): yellow
Colour of media in each well (Streptococcus uberis; Aztreonam 10 μg/ml): yellow
Colour of media after 24 hours incubation at 37° C. (Streptococcus uberis; [8]): Black
Colour of media prior incubation (Streptococcus uberis; [8]): Red
Colour of media after 24 hours incubation at 37° C. (Streptococcus uberis; [9]): Black
Colour of media prior incubation (Streptococcus uberis; [9]): Red
Colour of media after 24 hours incubation at 37° C. (Streptococcus uberis; [10]): Black
Colour of media prior incubation (Streptococcus uberis; [10]): Red
Colour of media after 24 hours incubation at 37° C. (Streptococcus uberis; [11]): Black
Colour of media prior incubation (Streptococcus uberis; [11]): Red
Colour of media after 24 hours incubation at 37° C. (Streptococcus uberis; [12]): Black
Colour of media prior incubation (Streptococcus uberis; [12]): Red
Colour of media after 24 hours incubation at 37° C. (Streptococcus uberis; [13]): Black
Colour of media prior incubation (Streptococcus uberis; [13]): Red
Colour of media in each well ([1]; Aztreonam 0.001 μg/ml): red
Colour of media in each well ([1]; Aztreonam 0.01 μg/ml): red
Colour of media in each well ([1]; Aztreonam 0.1 μg/ml): red
Colour of media in each well ([1]; Aztreonam 1 μg/ml): red
Colour of media in each well ([1]; Aztreonam 10 μg/ml): red
